Experiments:
[1] = Binding constant towards cyclodextrin conjugated peptide (with pyrene) at 25 degrees Centigrade
[2] = Sensitivity value towards cyclodextrin conjugated peptide (with pyrene) at 25 degrees Centigrade; set-up: concentration or dose not given beside the values

SMILES	Activity [1]	Change in sensitivity [2]
C[C@H](CCC(=O)O)[C@H]1CC[C@H]2[C@@H]3[C@@H](O)C[C@@H]4C[C@H](O)CC[C@]4(C)[C@H]3CC[C@]12C	173000 Kb M-1	0.4
C[C@H](CCC(=O)O)[C@H]1CC[C@H]2[C@@H]3CC[C@@H]4C[C@H](O)CCC4(C)[C@H]3C[C@H](O)[C@]12C (single isomer, unassigned)	1100 Kb M-1	0.01
C[C@H](CCC(=O)O)[C@H]1CC[C@H]2[C@@H]3CC[C@@H]4C[C@H](O)CC[C@]4(C)[C@H]3CC[C@]12C	439000 Kb M-1	0.45
C[C@H](CCC(=O)O)[C@H]1CC[C@H]2[C@@H]3[C@H](O)C[C@@H]4C[C@H](O)CC[C@]4(C)[C@H]3C[C@H](O)[C@]12C	900 Kb M-1	0.008
C[C@H](CCC(=O)O)[C@H]1CC[C@H]2[C@@H]3[C@H](O)C[C@@H]4C[C@H](O)CC[C@]4(C)[C@H]3CC[C@]12C	33300 Kb M-1	0.16
C[C@H](CCC(=O)O)[C@H]1CC[C@H]2[C@@H]3C[C@H](O)[C@@H]4C[C@H](O)CC[C@]4(C)[C@H]3CC[C@]12C	210000 Kb M-1	0.4
